Data reported in US20040009904A1, “APL immunoreactive peptides, conjugates thereof and methods of treatment for aPL antibody-mediated pathologies” (priority 1995, published 2004).
Bridge positions count the residues as written; N and C are the ends. Peptide text beside a SMILES is read from it.

How the values were obtained:
[1] = system: ACA-6903; assay: Competitive binding peptide ACA ELISA, cardiolipin/β2-GPI-coated plates; parameters: species or system human; conditions: peptide 1 mg/mL, affinity purified antibody
Method in brief: (§1)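 Wells coated with cardiolipin plus IgG-depleted human serum as β2-GPI source; monomeric peptides at several concentrations preincubated with aPL antibody, then added 1 h RT. Bound IgG detected with alkaline phosphatase anti-human IgG, A550; IC50 taken as peptide amount giving half-maximal absorbance.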

[2] = system: ACA-6641; assay: as above; parameters: species or system human; conditions: peptide 1 mg/mL, affinity purified antibody
Method in brief: as §1

[3] = system: ACA-6701; assay: as above; parameters: species or system human; conditions: peptide 1 mg/mL, affinity purified antibody
Method in brief: as §1

[4] = system: ACA-7005; assay: as above; parameters: species or system human; conditions: peptide 1 mg/mL, affinity purified antibody
Method in brief: as §1

[5] = system: ACA-6644; assay: as above; parameters: species or system human; conditions: peptide 1 mg/mL, affinity purified antibody
Method in brief: as §1

[6] = system: ACA-6626; assay: as above; parameters: species or system human; conditions: peptide 1 mg/mL, affinity purified antibody
Method in brief: as §1

[7] = system: ACA-6638; assay: as above; parameters: species or system human; conditions: peptide 1 mg/mL, affinity purified antibody
Method in brief: as §1

[8] = system: ACA-7004; assay: as above; parameters: species or system human; conditions: peptide 1 mg/mL, affinity purified antibody
Method in brief: as §1

[9] = target: ACA-6701; assay: Competitive fluorescence polarization assay (cFP); type: binding, human
Experimental: The above described dbFP assay provides binding constants for FITC-labeled peptides and requires on the order of 0.5 mg of purified antibody. The cFP assay provides binding constants for peptides that lack the FITC group and it consumes less antibody, on the order of 10 μg. The cFP assay is modified from that reported in PanVera Applications Guide (1994) PanVera Corporation such that it consumes 50-fold less antibody. Briefly, antibody (ACA 6701) is mixed with trace FITC labeled peptide (CB2*-F) and enough time is allowed for equilibrium to be reached. This was 1 hour for ACA 6701 and CB2*-F. Increasing concentrations of the unlabeled peptide being tested (CB2* or 3B10) are then added to the tube. After each addition, sufficient time, approximately 15 minutes, is allowed for equilibrium to be reached and the mP value was read. […] This Δ(mP) value should be 20 or more mP units to insure reliable results.
As unlabeled (no FITC) peptide (I) is added to inhibit F from binding to R, Y decreases from its maximum value of PH′ to a plateau of PL which should agree with that in Equation 1. These titrations are shown in FIGS. 26 and 27 for displacement of CB2*-F from ACA-6701 by CB2* and 3B10, respectively. The equation describing this titration was derived and is: [formula]
where PL is the same as in Equation 1. […]

## CC(C)C[C@@H]1NC(=O)[C@H](CC(C)C)NC(=O)[C@H](CC(C)C)NC(=O)[C@@H](NC(=O)[C@@H]2CCCN2C(=O)CNC(=O)[C@H](C)N)CSSC[C@@H](C(=O)N2CCC[C@H]2C(=O)NCC(=O)O)NC(=O)[C@H](CCCNC(=N)N)NC(=O)[C@H](CC(=O)O)NC(=O)[C@@H]2CCCN2C(=O)[C@H](C)NC1=O [3B10, AGPCLLLAPDRCPG] (H-AGPCLLLAPDRCPG-OH; disulfide 4-12)
[1]
  Percent Inhibition of AffACA by Peptide Monomers, 6903: 69%
[2]
  Percent Inhibition of AffACA by Peptide Monomers, 6641: 52%
[3]
  Percent Inhibition of AffACA by Peptide Monomers, 6701: 51%
[4]
  Percent Inhibition of AffACA by Peptide Monomers, 7005: 47%
[5]
  Percent Inhibition of AffACA by Peptide Monomers, 6644: 55%
[6]
  Percent Inhibition of AffACA by Peptide Monomers, 6626: 76%
[7]
  Percent Inhibition of AffACA by Peptide Monomers, 6638: 87%
[8]
  Percent Inhibition of AffACA by Peptide Monomers, 7004: 87%
[9]; cFP, displacement of CB2*-F from ACA-6701
  Ki: 313 nM
[9]; versus CB2*
  binding to ACA-6701 less than binding of CB2*: 9 fold
